Source: patent publication US10487093B2, “Heterocyclic compounds, in particular 2-oxo-4,4,5,5,6,6,7,7-octahydrobenzoxazole derivatives, and their use as antibacterial compounds” (priority 2016, dated 2019)
In brackets after ≈: the same amount, converted by molar mass. Where two headings read alike, the source gives them in different places.

Key:
Assay type in all cases: cell-based
[1] = test system: Clostridium difficile ATCC 700057; test: MIC against anaerobes, agar dilution (CLSI), reference strain; settings: Clostridioides difficile, ATCC700057, 48 h, read-out: MIC, C. difficile ATCC 700057
[2] = test system: Bacteroides fragilis ATCC 25285; test: as above; settings: ATCC25285, agar dilution, Brucella blood agar, 35° C., 48 h, anaerobic conditions, read-out: MIC, B. fragilis ATCC 25285
[3] = test system: Bacteroides thetaiotaomicron ATCC 29741; test: microbe, parasite or virus in culture; settings: ATCC29741, 48 h, read-out: MIC, B. thetaiotaomicron ATCC
[4] = test system: strains of Clostridium perfringens; test: microbe, parasite or virus in culture
[5] = test system: strains of Finegoldia magna; test: MIC against anaerobes, agar dilution (CLSI), clinical isolates; settings: Finegoldia magna, read-out: MIC
[6] = test system: strains of Parvimonas micra; test: as above
[7] = test system: strains of Peptoniphilus harei; test: as above; settings: Peptoniphilus harei, read-out: MIC
[8] = test system: strains of Peptostreptococcus anaerobius; test: as above
[9] = test system: strains of Propionibacterium acnes; test: as above; settings: Cutibacterium acnes
[10] = test system: strains of Bacteroides fragilis; test: as above
[11] = test system: strains of Bacteroides thetaiotaomicron; test: microbe, parasite or virus in culture
[12] = test system: strains of Prevotella bivia; test: MIC against anaerobes, agar dilution (CLSI), clinical isolates
[13] = test system: strains of Prevotella melaninogenica; test: as above

In the case of `Cc1ncc([N+](=O)[O-])n1CCO` [MTZ, metronidazole, reference compound], the MIC [1] is reported as less than 1 µg/mL, the MIC [2] is reported as less than 1 µg/mL and the MIC [3] is reported as 1 to 4 µg/mL (≈ 5.84 to 23.4 µM). For the same compound, the MIC ([4]; Clostridium perfringens strain 1) was 1 to 4 µg/mL (≈ 5.84 to 23.4 µM), the MIC ([4]; Clostridium perfringens strain 2) was less than 1 µg/mL and the MIC ([4]; Clostridium perfringens strain 3) was less than 1 µg/mL. For the same compound, the MIC ([4]; Clostridium perfringens strain 4) was less than 1 µg/mL, the MIC ([4]; Clostridium perfringens strain 5) was less than 1 µg/mL and the MIC ([4]; Clostridium perfringens strain 6) was 1 to 4 µg/mL (≈ 5.84 to 23.4 µM). It also gave an MIC ([4]; Clostridium perfringens strain 7) of less than 1 µg/mL, an MIC ([4]; Clostridium perfringens strain 8) of less than 1 µg/mL and an MIC ([4]; Clostridium perfringens strain 9) of less than 1 µg/mL. It also gave an MIC ([4]; Clostridium perfringens strain 10) of less than 1 µg/mL, an MIC ([4]; Clostridium perfringens strain 11) of 1 to 4 µg/mL (≈ 5.84 to 23.4 µM) and an MIC ([5]; Finegoldia magna strain 1) of less than 1 µg/mL. The MIC ([5]; Finegoldia magna strain 2) was less than 1 µg/mL, the MIC ([5]; Finegoldia magna strain 3) was 1 to 4 µg/mL (≈ 5.84 to 23.4 µM) and the MIC ([5]; Finegoldia magna strain 4) was less than 1 µg/mL. For the same compound, the MIC ([5]; Finegoldia magna strain 5) was 1 to 4 µg/mL (≈ 5.84 to 23.4 µM), the MIC ([5]; Finegoldia magna strain 6) was 1 to 4 µg/mL (≈ 5.84 to 23.4 µM) and the MIC ([5]; Finegoldia magna strain 7) was 1 to 4 µg/mL (≈ 5.84 to 23.4 µM). For the same compound, the MIC ([5]; Finegoldia magna strain 8) was 1 to 4 µg/mL (≈ 5.84 to 23.4 µM), the MIC ([5]; Finegoldia magna strain 9) was 1 to 4 µg/mL (≈ 5.84 to 23.4 µM) and the MIC ([5]; Finegoldia magna strain 10) was 1 to 4 µg/mL (≈ 5.84 to 23.4 µM). The MIC ([5]; Finegoldia magna strain 11) was 1 to 4 µg/mL (≈ 5.84 to 23.4 µM), the MIC ([5]; Finegoldia magna strain 12) was less than 1 µg/mL and the MIC ([6]; Parvimonas micra strain 1) was 1 to 4 µg/mL (≈ 5.84 to 23.4 µM). For the same compound, the MIC ([6]; Parvimonas micra strain 2) was less than 1 µg/mL, the MIC ([6]; Parvimonas micra strain 3) was less than 1 µg/mL and the MIC ([6]; Parvimonas micra strain 4) was less than 1 µg/mL. For the same compound, the MIC ([6]; Parvimonas micra strain 5) was less than 1 µg/mL, the MIC ([6]; Parvimonas micra strain 6) was less than 1 µg/mL and the MIC ([6]; Parvimonas micra strain 7) was less than 1 µg/mL. The MIC ([6]; Parvimonas micra strain 8) was less than 1 µg/mL, the MIC ([6]; Parvimonas micra strain 9) was less than 1 µg/mL and the MIC ([6]; Parvimonas micra strain 10) was 1 to 4 µg/mL (≈ 5.84 to 23.4 µM). It also gave an MIC ([6]; Parvimonas micra strain 11) of less than 1 µg/mL, an MIC ([6]; Parvimonas micra strain 12) of less than 1 µg/mL and an MIC ([7]; Peptoniphilus harei strain 1) of 1 to 4 µg/mL (≈ 5.84 to 23.4 µM). For the same compound, the MIC ([7]; Peptoniphilus harei strain 2) was less than 1 µg/mL, the MIC ([7]; Peptoniphilus harei strain 3) was less than 1 µg/mL and the MIC ([7]; Peptoniphilus harei strain 4) was 1 to 4 µg/mL (≈ 5.84 to 23.4 µM). For the same compound, the MIC ([7]; Peptoniphilus harei strain 5) was less than 1 µg/mL, the MIC ([7]; Peptoniphilus harei strain 6) was less than 1 µg/mL and the MIC ([7]; Peptoniphilus harei strain 7) was less than 1 µg/mL. It also gave an MIC ([7]; Peptoniphilus harei strain 8) of less than 1 µg/mL, an MIC ([7]; Peptoniphilus harei strain 9) of 1 to 4 µg/mL (≈ 5.84 to 23.4 µM) and an MIC ([7]; Peptoniphilus harei strain 10) of less than 1 µg/mL. The MIC ([7]; Peptoniphilus harei strain 11) was less than 1 µg/mL, the MIC ([7]; Peptoniphilus harei strain 12) was 1 to 4 µg/mL (≈ 5.84 to 23.4 µM) and the MIC ([8]; Peptostreptococcus anaerobius strain 1) was less than 1 µg/mL. For the same compound, the MIC ([8]; Peptostreptococcus anaerobius strain 2) was less than 1 µg/mL, the MIC ([8]; Peptostreptococcus anaerobius strain 3) was less than 1 µg/mL and the MIC ([8]; Peptostreptococcus anaerobius strain 4) was less than 1 µg/mL. For the same compound, the MIC ([8]; Peptostreptococcus anaerobius strain 5) was less than 1 µg/mL, the MIC ([8]; Peptostreptococcus anaerobius strain 6) was less than 1 µg/mL and the MIC ([8]; Peptostreptococcus anaerobius strain 7) was less than 1 µg/mL. The MIC ([8]; Peptostreptococcus anaerobius strain 8) was less than 1 µg/mL, the MIC ([8]; Peptostreptococcus anaerobius strain 9) was less than 1 µg/mL and the MIC ([8]; Peptostreptococcus anaerobius strain 10) was less than 1 µg/mL. The MIC ([9]; Propionibacterium acnes strain 1) was 16 to 64 µg/mL (≈ 93.5 to 374 µM), the MIC ([9]; Propionibacterium acnes strain 2) was 16 to 64 µg/mL (≈ 93.5 to 374 µM) and the MIC ([9]; Propionibacterium acnes strain 3) was 16 to 64 µg/mL (≈ 93.5 to 374 µM). The MIC ([9]; Propionibacterium acnes strain 4) was 16 to 64 µg/mL (≈ 93.5 to 374 µM), the MIC ([9]; Propionibacterium acnes strain 5) was 16 to 64 µg/mL (≈ 93.5 to 374 µM) and the MIC ([9]; Propionibacterium acnes strain 6) was 16 to 64 µg/mL (≈ 93.5 to 374 µM). The MIC ([9]; Propionibacterium acnes strain 7) was 16 to 64 µg/mL (≈ 93.5 to 374 µM), the MIC ([9]; Propionibacterium acnes strain 8) was 16 to 64 µg/mL (≈ 93.5 to 374 µM) and the MIC ([9]; Propionibacterium acnes strain 9) was 16 to 64 µg/mL (≈ 93.5 to 374 µM). The MIC ([9]; Propionibacterium acnes strain 10) was 16 to 64 µg/mL (≈ 93.5 to 374 µM), the MIC ([9]; Propionibacterium acnes strain 11) was 16 to 64 µg/mL (≈ 93.5 to 374 µM) and the MIC ([9]; Propionibacterium acnes strain 12) was 16 to 64 µg/mL (≈ 93.5 to 374 µM). The MIC ([10]; Bacteroides fragilis strain 1) was less than 1 µg/mL, the MIC ([10]; Bacteroides fragilis strain 2) was less than 1 µg/mL and the MIC ([10]; Bacteroides fragilis strain 3) was less than 1 µg/mL. The MIC ([10]; Bacteroides fragilis strain 4) was less than 1 µg/mL, the MIC ([10]; Bacteroides fragilis strain 5) was less than 1 µg/mL and the MIC ([10]; Bacteroides fragilis strain 6) was less than 1 µg/mL. The MIC ([10]; Bacteroides fragilis strain 7) was less than 1 µg/mL, the MIC ([10]; Bacteroides fragilis strain 8) was less than 1 µg/mL and the MIC ([10]; Bacteroides fragilis strain 9) was less than 1 µg/mL. It also gave an MIC ([10]; Bacteroides fragilis strain 10) of less than 1 µg/mL, an MIC ([10]; Bacteroides fragilis strain 11) of less than 1 µg/mL and an MIC ([10]; Bacteroides fragilis strain 12) of less than 1 µg/mL. It also gave an MIC ([11]; Bacteroides thetaiotaomicron strain 1) of less than 1 µg/mL, an MIC ([11]; Bacteroides thetaiotaomicron strain 2) of less than 1 µg/mL and an MIC ([11]; Bacteroides thetaiotaomicron strain 3) of 1 to 4 µg/mL (≈ 5.84 to 23.4 µM). The MIC ([11]; Bacteroides thetaiotaomicron strain 4) was 1 to 4 µg/mL (≈ 5.84 to 23.4 µM), the MIC ([11]; Bacteroides thetaiotaomicron strain 5) was 1 to 4 µg/mL (≈ 5.84 to 23.4 µM) and the MIC ([11]; Bacteroides thetaiotaomicron strain 6) was 1 to 4 µg/mL (≈ 5.84 to 23.4 µM). It also gave an MIC ([11]; Bacteroides thetaiotaomicron strain 7) of less than 1 µg/mL, an MIC ([11]; Bacteroides thetaiotaomicron strain 8) of 1 to 4 µg/mL (≈ 5.84 to 23.4 µM) and an MIC ([11]; Bacteroides thetaiotaomicron strain 9) of less than 1 µg/mL. For the same compound, the MIC ([11]; Bacteroides thetaiotaomicron strain 10) was 1 to 4 µg/mL (≈ 5.84 to 23.4 µM), the MIC ([11]; Bacteroides thetaiotaomicron strain 11) was 1 to 4 µg/mL (≈ 5.84 to 23.4 µM) and the MIC ([12]; Prevotella bivia strain 1) was 1 to 4 µg/mL (≈ 5.84 to 23.4 µM). The MIC ([12]; Prevotella bivia strain 2) was 1 to 4 µg/mL (≈ 5.84 to 23.4 µM), the MIC ([12]; Prevotella bivia strain 3) was 1 to 4 µg/mL (≈ 5.84 to 23.4 µM) and the MIC ([12]; Prevotella bivia strain 4) was 1 to 4 µg/mL (≈ 5.84 to 23.4 µM). The MIC ([12]; Prevotella bivia strain 5) was 1 to 4 µg/mL (≈ 5.84 to 23.4 µM), the MIC ([12]; Prevotella bivia strain 6) was 1 to 4 µg/mL (≈ 5.84 to 23.4 µM) and the MIC ([12]; Prevotella bivia strain 7) was 1 to 4 µg/mL (≈ 5.84 to 23.4 µM). For the same compound, the MIC ([12]; Prevotella bivia strain 8) was 1 to 4 µg/mL (≈ 5.84 to 23.4 µM), the MIC ([12]; Prevotella bivia strain 9) was 1 to 4 µg/mL (≈ 5.84 to 23.4 µM) and the MIC ([12]; Prevotella bivia strain 10) was 1 to 4 µg/mL (≈ 5.84 to 23.4 µM). It also gave an MIC ([13]; Prevotella melaninogenica strain 1) of less than 1 µg/mL, an MIC ([13]; Prevotella melaninogenica strain 2) of less than 1 µg/mL and an MIC ([13]; Prevotella melaninogenica strain 3) of less than 1 µg/mL. The MIC ([13]; Prevotella melaninogenica strain 4) was less than 1 µg/mL, the MIC ([13]; Prevotella melaninogenica strain 5) was less than 1 µg/mL and the MIC ([13]; Prevotella melaninogenica strain 6) was less than 1 µg/mL. The MIC ([13]; Prevotella melaninogenica strain 7) was less than 1 µg/mL, the MIC ([13]; Prevotella melaninogenica strain 8) was less than 1 µg/mL and the MIC ([13]; Prevotella melaninogenica strain 9) was less than 1 µg/mL. The MIC ([13]; Prevotella melaninogenica strain 10) was less than 1 µg/mL and the MIC ([13]; Prevotella melaninogenica strain 11) was less than 1 µg/mL.
